Test results as given in US11535643B2, “Macrolides with modified desosamine sugars and uses thereof” (President and Fellows of Harvard College, priority 2015, dated 2022).
In brackets after ≈: the same amount, converted by molar mass. Like-named read-outs stand apart in the source and are kept apart here.

Tests used:
[1] = from C=CCOC(=O)NC[C@@H]1C[C@H](N(C)C)[C@@H](OC(=O)OC)[C@H](O[C@H]([C@@H](C)C2=C(C)C(=O)OC(C)(C)O2)[C@@](C)(C[C@@H](C)CN[C@H](C)[C@H]2N(CCCCN=[N+]=[N-])C(=O)O[C@]2(C)[C@H](O)CC)OC)O1; ester bond; chlorobenzene; 1.0 mM; 150.0 °C; 16.0 h
E. faecalis = test: Broth dilution MIC determination (CLSI) against E. faecalis strains; assay type: cell-based; details: for MIC: Enterococcus faecalis
Summary of the method: (§1)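 MICs were determined by CLSI standard broth dilution against multiple strains, including multidrug-resistant isolates, with emphasis on macrolide resistance mechanisms. Azithromycin and solithromycin served as control compounds.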

P. aeruginosa = test: Broth dilution MIC determination (CLSI) against P. aeruginosa strains; assay type: cell-based; details: for MIC: Pseudomonas aeruginosa
Summary of the method: as §1

S. pyogenes = test: Broth dilution MIC determination (CLSI) against S. pyogenes strains; assay type: cell-based; details: for MIC: Streptococcus pyogenes
Summary of the method: as §1

A. baumannii = test: Broth dilution MIC determination (CLSI) against A. baumannii strains; assay type: cell-based; details: for MIC: Acinetobacter baumannii
Summary of the method: as §1

K. pneumoniae = test: Broth dilution MIC determination (CLSI) against K. pneumoniae strains; assay type: cell-based; details: for MIC: Klebsiella pneumoniae
Summary of the method: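 CLSI broth-dilution MICs across a panel including multidrug- and macrolide-resistant strains, with azithromycin and solithromycin as control compounds.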

E. coli = test: Broth dilution MIC determination (CLSI) against E. coli strains; assay type: cell-based; details: for MIC: Escherichia coli
Summary of the method: as §1

S. aureus = test: Broth dilution MIC determination (CLSI) against S. aureus strains; assay type: cell-based; details: for MIC: Staphylococcus aureus
Summary of the method: as §1

S. pneumoniae = test: Broth dilution MIC determination (CLSI) against S. pneumoniae strains; assay type: cell-based; details: for MIC: Streptococcus pneumoniae
Summary of the method: as §1

H. influenzae = test: Broth dilution MIC determination (CLSI) against H. influenzae strains; assay type: cell-based; details: for MIC: Haemophilus influenzae
Summary of the method: as §1

[2] = Vancomycin-resistant, read-out: MIC E. faecalis Vancomycin-resistant
[3] = ATCC27853, read-out: MIC P. aeruginosa ATCC27853
[4] = read-out: MIC P. aeruginosa HPA101-1477
[5] = ATCC19615, ATCC19615, read-out: MIC S. pyogenes ATCC19615
[6] = macrolide-resistant, read-out: MIC S. pyogenes macrolide-resistant
[7] = ATCC19606, ATCC19606, read-out: MIC A. baumannii ATCC19606
[8] = IMP-4, read-out: MIC A. baumannii IMP-4
[9] = chromosomal class C, read-out: MIC A. baumannii chromosomal class C
[10] = imipenem-resistant, read-out: MIC A. baumannii imipenem-resistant
[11] = ATCC10031, ATCC10031, read-out: MIC K. pneumoniae ATCC10031
[12] = KPC-2, read-out: MIC K. pneumoniae KPC-2
[13] = SHV-12, read-out: MIC K. pneumoniae SHV-12
[14] = ATCC25922, ATCC25922, read-out: MIC E. coli ATCC25922
[15] = read-out: MIC E. coli CTX-M-14, CTX-M-14
[16] = read-out: MIC E. coli NDM-1, NDM-1
[17] = read-out: MIC E. coli TEM-1, TEM-1
[18] = MRSA / USA100, MRSA: USA100, read-out: MIC S. aureus MRSA: USA100
[19] = MRSA / USA300, MRSA: USA300, read-out: MIC S. aureus MRSA: USA300
[20] = USA600, USA600, GISA, read-out: MIC S. aureus USA600, GISA
[21] = read-out: MIC S. aureus erm A genotype
[22] = ATCC49619, ATCC49619, read-out: MIC S. pneumoniae ATCC49619
[23] = erm B + tet(M, O) genotype, read-out: MIC S. pneumoniae erm B + tet(M, O) genotype
[24] = ATCC49247, ATCC49247, read-out: MIC H. influenzae ATCC49247

SMILES: C=CCOC(=O)NC[C@@H]1C[C@H](N(C)C)[C@@H](OC(=O)OC)[C@H](O[C@@H]2[C@@H](C)C(=O)[C@@H](C)C(=O)O[C@H](CC)[C@@]3(C)OC(=O)N(CCCCN=[N+]=[N-])[C@@H]3[C@@H](C)NC[C@H](C)C[C@@]2(C)OC)O1
- ring closure, yield of all isomers [1]: 70%

SMILES: CC[C@H]1OC(=O)[C@H](C)C(=O)[C@H](C)[C@@H](O[C@@H]2OC(Cn3cc(-c4ccccn4)nn3)CC(N(C)C)C2O)[C@](C)(OC)C[C@@H](C)CN[C@H](C)[C@H]2N(CCCCn3cc(-c4cccc(N)c4)nn3)C(=O)O[C@]12C (stereo partly drawn) [FSM-22366]
- MIC E. faecalis ATCC29212 (E. faecalis): 2 µg/mL (≈ 2.06 µM)
- MIC E. faecalis Vancomycin-resistant (E. faecalis; Vancomycin-resistant): >32 µg/mL
- MIC P. aeruginosa ATCC27853 (P. aeruginosa; ATCC27853): >32 µg/mL
- MIC P. aeruginosa HPA101-1477 (P. aeruginosa; HPA101-1477): >32 µg/mL
- MIC S. pyogenes ATCC19615 (S. pyogenes; ATCC19615): <0.03125 µg/mL
- MIC S. pyogenes macrolide-resistant (S. pyogenes; macrolide-resistant): 1 µg/mL (≈ 1.03 µM)
- MIC A. baumannii ATCC19606 (A. baumannii; ATCC19606): >32 µg/mL
- MIC A. baumannii IMP-4 (A. baumannii; IMP-4): >32 µg/mL
- MIC A. baumannii chromosomal class C (A. baumannii; chromosomal class C): >32 µg/mL
- MIC A. baumannii imipenem-resistant (A. baumannii; imipenem-resistant): 32 µg/mL (≈ 32.9 µM)
- MIC K. pneumoniae ATCC10031 (K. pneumoniae; ATCC10031): 16 µg/mL (≈ 16.5 µM)
- MIC K. pneumoniae KPC-2 (K. pneumoniae; KPC-2): >32 µg/mL
- MIC K. pneumoniae SHV-12 (K. pneumoniae; SHV-12): >32 µg/mL
- MIC K. pneumoniae TEM-10 (K. pneumoniae; TEM-10): 32 µg/mL (≈ 32.9 µM)
- MIC E. coli ATCC25922 (E. coli; ATCC25922): >32 µg/mL
- MIC E. coli CTX-M-14 (E. coli; CTX-M-14): >32 µg/mL
- MIC E. coli NDM-1 (E. coli; NDM-1): >32 µg/mL
- MIC E. coli TEM-1 (E. coli; TEM-1): 16 µg/mL (≈ 16.5 µM)
- MIC S. aureus ATCC29213 (S. aureus): 32 µg/mL (≈ 32.9 µM)
- MIC S. aureus MRSA: USA100 (S. aureus; MRSA: USA100): >32 µg/mL
- MIC S. aureus MRSA: USA300 (S. aureus; MRSA: USA300): >32 µg/mL
- MIC S. aureus USA600, GISA (S. aureus; USA600, GISA): >32 µg/mL
- MIC S. aureus erm A genotype (S. aureus; erm A genotype): >32 µg/mL
- MIC S. pneumoniae ATCC49619 (S. pneumoniae; ATCC49619): <0.03125 µg/mL
- MIC S. pneumoniae erm B + mef A genotype (S. pneumoniae; erm B + mef A genotype): >32 µg/mL
- MIC S. pneumoniae erm B + tet(M, O) genotype (S. pneumoniae; erm B + tet(M, O) genotype): <0.03125 µg/mL
- MIC H. influenzae ATCC49247 (H. influenzae; ATCC49247): 4 µg/mL (≈ 4.11 µM)
- MIC H. influenzae erythro > 4, azithro 1 (H. influenzae; erythro > 4, azithro 1): 4 µg/mL (≈ 4.11 µM)

SMILES: CC[C@H]1OC(=O)[C@H](C)C(=O)[C@H](C)[C@@H](O[C@@H]2OC(Cn3cc(-c4cnc(N)s4)nn3)CC(N(C)C)C2O)[C@](C)(OC)C[C@@H](C)CN[C@H](C)[C@H]2N(CCCCn3cc(-c4cccc(N)c4)nn3)C(=O)O[C@]12C (stereo partly drawn) [FSM-22125]
- MIC (E. faecalis; ATCC29212, ATCC29212, read-out: MIC E. faecalis ATCC29212): 0.5 µg/mL (≈ 0.503 µM)
- MIC (E. faecalis; [2]): > 32 µg/mL
- MIC (P. aeruginosa; [3]): > 32 µg/mL
- MIC (P. aeruginosa; [4]): > 32 µg/mL
- MIC (S. pyogenes; [5]): ≤ 0.0312 µg/mL
- MIC (S. pyogenes; [6]): 4 µg/mL (≈ 4.03 µM)
- MIC (A. baumannii; [7]): > 32 µg/mL
- MIC (A. baumannii; [8]): > 32 µg/mL
- MIC (A. baumannii; [9]): 32 µg/mL (≈ 32.2 µM)
- MIC (A. baumannii; [10]): > 32 µg/mL
- MIC (K. pneumoniae; [11]): 32 µg/mL (≈ 32.2 µM)
- MIC (K. pneumoniae; [12]): > 32 µg/mL
- MIC (K. pneumoniae; [13]): > 32 µg/mL
- MIC (K. pneumoniae; TEM-10, read-out: MIC K. pneumoniae TEM-10): 32 µg/mL (≈ 32.2 µM)
- MIC (E. coli; [14]): 32 µg/mL (≈ 32.2 µM)
- MIC (E. coli; [15]): > 32 µg/mL
- MIC (E. coli; [16]): > 32 µg/mL
- MIC (E. coli; [17]): 16 µg/mL (≈ 16.1 µM)
- MIC (S. aureus; ATCC29213, ATCC29213, read-out: MIC S. aureus ATCC29213): 4 µg/mL (≈ 4.03 µM)
- MIC (S. aureus; [18]): > 32 µg/mL
- MIC (S. aureus; [19]): > 32 µg/mL
- MIC (S. aureus; [20]): > 32 µg/mL
- MIC (S. aureus; [21]): > 32 µg/mL
- MIC (S. pneumoniae; [22]): ≤ 0.0312 µg/mL
- MIC (S. pneumoniae; erm B + mef A genotype, read-out: MIC S. pneumoniae erm B + mef A genotype): > 32 µg/mL
- MIC (S. pneumoniae; [23]): ≤ 0.0312 µg/mL
- MIC (S. pneumoniae; read-out: MIC S. pneumoniae mef A genotype, mef A genotype): 4 µg/mL (≈ 4.03 µM)
- MIC (S. pneumoniae; read-out: MIC S. pneumoniae mef A genotype, mef A genotype, first of two such columns (c3)): 0.5 µg/mL (≈ 0.503 µM)
- MIC (H. influenzae; [24]): 4 µg/mL (≈ 4.03 µM)
- MIC (H. influenzae; erythro > 4, azithro 1, read-out: MIC H. influenzae erythro > 4, azithro 1): 2 µg/mL (≈ 2.01 µM)

SMILES: CC[C@H]1OC(=O)[C@H](C)C(=O)[C@H](C)[C@@H](O[C@@H]2OC(Cn3cc(-c4ccccn4)nn3)CC(N(C)C)C2O)[C@](C)(OC)C[C@@H](C)CN[C@H](C)[C@H]2N(CCCCn3cc(-c4cccc(N)c4)nn3)C(=O)O[C@]12C (stereo partly drawn) [FSM-22111]
- MIC E. faecalis ATCC29212 (E. faecalis): 0.25 µg/mL (≈ 0.257 µM)
- MIC (E. faecalis; [2]): > 32 µg/mL
- MIC (P. aeruginosa; [3]): > 32 µg/mL
- MIC (P. aeruginosa; [4]): > 32 µg/mL
- MIC (S. pyogenes; [5]): ≤ 0.0312 µg/mL
- MIC (S. pyogenes; [6]): 1 µg/mL (≈ 1.03 µM)
- MIC (A. baumannii; [7]): 16 µg/mL (≈ 16.5 µM)
- MIC (A. baumannii; [8]): > 32 µg/mL
- MIC (A. baumannii; [9]): 16 µg/mL (≈ 16.5 µM)
- MIC (A. baumannii; [10]): 16 µg/mL (≈ 16.5 µM)
- MIC (K. pneumoniae; [11]): 8 µg/mL (≈ 8.23 µM)
- MIC (K. pneumoniae; [12]): 32 µg/mL (≈ 32.9 µM)
- MIC (K. pneumoniae; [13]): > 32 µg/mL
- MIC K. pneumoniae TEM-10 (K. pneumoniae; TEM-10): 8 µg/mL (≈ 8.23 µM)
- MIC (E. coli; [14]): 16 µg/mL (≈ 16.5 µM)
- MIC (E. coli; [15]): > 32 µg/mL
- MIC (E. coli; [16]): 32 µg/mL (≈ 32.9 µM)
- MIC (E. coli; [17]): 16 µg/mL (≈ 16.5 µM)
- MIC S. aureus ATCC29213 (S. aureus): 2 µg/mL (≈ 2.06 µM)
- MIC (S. aureus; [18]): > 32 µg/mL
- MIC (S. aureus; [19]): > 32 µg/mL
- MIC (S. aureus; [20]): > 32 µg/mL
- MIC (S. aureus; [21]): > 32 µg/mL
- MIC (S. pneumoniae; [22]): ≤ 0.0312 µg/mL
- MIC (S. pneumoniae; [23]): ≤ 0.0312 µg/mL
- MIC S. pneumoniae erm B + mef A genotype (S. pneumoniae; erm B + mef A genotype): 2 µg/mL
- MIC (H. influenzae; [24]): 2 µg/mL (≈ 2.06 µM)
- MIC H. influenzae erythro > 4, azithro 1 (H. influenzae; erythro > 4, azithro 1): 1 µg/mL (≈ 1.03 µM)
